Assays:
Pin1 = Pin1 (Homo sapiens, UniProt Q13526); test: Immunoblotting for Pin1 and substrate oncoproteins in PDAC cells; format: cell-based; parameters: endogenous in cells; host or cells: primary human patient-derived PDAC cells (PDAC1, PDAC2); conditions: 72 hrs
Protocol: Cultured cells were lysed in RIPA buffer (50 mM Tris-HCl, pH 7.2, 150 mM NaCl, 1% NP40, 0.1% sodium dodecyl sulfate (SDS), 0.25% Na-deoxycholate) with freshly added phosphatase inhibitors containing 5 mM NaF and 0.2 mM sodium orthovanadate (NA3VO4), and proteinase inhibitors containing 2 μg/mL Aprotinin, 2 μg/mL Leupeptin, 2 μg/mL Pepstatin A, 1 mM DTT (dithiothreitol), 0.5 mM 4-(2-aminoethyl)-benzenesulfonyl fluoride (AEBSF), and 20 mM Chymotrypsin, and then mixed with the SDS sample buffer and loaded onto a gel after boiling for 10 minutes at 95° C. The proteins were resolved by polyacrylamide gel electrophoresis and transferred to PVDF membrane. The transferred membrane was washed three times with Tris-buffered saline containing 0.1% Tween 20 (TBST). After blocking with TBST containing 5% milk or 3% bovine serum albumin (BSA) for 1 h room temperature, the membrane was incubated with the appropriate primary antibody (diluted 1:500-1:10000) in 5% milk or 3% BSA-containing TBST at 4° C. overnight. After incubation with the primary antibody, the membrane was washed three times with TBST for a total of 30 min followed by incubation with horseradish peroxidase conjugated goat anti-rabbit or anti-mouse IgG (diluted 1:5000) for 1 h at room temperature. After three extensive washes with TBST for a total of 30 min, the immunoblots were visualized by enhanced chemi-luminescence. Immunoblotting results were quantified using ImageJ (NIH).

[1] = test system: human PDAC cells (PDAC1 and PDAC2); test: Cell proliferation assay (CellTiter-Glo) in PDAC cells; format: cell-based; conditions: PDAC cells, 72 hrs
Protocol: Cells were seeded at a density of 5000 cells (PDAC1 and PDAC2), or 3000 cells (CAF1 and CAF2) per well in 96-well flat-bottomed plates and incubated for 24 h in culture medium. […] Control cells received dimethyl sulfoxide (DMSO) at a concentration equal to that of drug-treated cells for 72 hours. The cell viability was determined by CellTiter-Glo® 2.0 Assay (Promega) following the manufacturer's instructions.

[2] = in humans; cited from earlier work

Pin1, sequence (Q13526 whole entry): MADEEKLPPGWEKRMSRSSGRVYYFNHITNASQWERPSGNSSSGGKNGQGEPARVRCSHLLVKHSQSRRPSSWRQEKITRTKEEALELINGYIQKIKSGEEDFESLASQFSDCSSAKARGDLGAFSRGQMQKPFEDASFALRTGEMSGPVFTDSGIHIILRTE

Row | Compound | Pin1 and its substrate oncoproteins (IB) (Pin1) | cell growth (proliferation assay) [1] | half-life [2] [min]
1 | CC1=C(/C=C/C(C)=C/C=C/C(C)=C/C(=O)O)C(C)(C)CCC1 [ATRA, all-trans retinoic acid] | ablate Pin1 | dose-dependently suppress cell growth | ~45
2 | arsenic trioxide [ATO, reference compound] | ablate Pin1 | dose-dependently suppress cell growth | –

Source: US20250319053A1, “INHIBITORS OF THE PEPTIDYL-PROLYL CIS/TRANS ISOMERASE (PIN1), COMBINATIONS AND USES THEREOF” (DANA-FARBER CANCER INSTITUTE, INC., priority 2021, published 2025)
